Laboratory results as given in patent publication EP0835125B1, “CD4-DERIVED PEPTIDES THAT INHIBIT IMMUNE RESPONSES” (THOMAS JEFFERSON UNIVERSITY, priority 1995, dated 2004).
Where “and” joins values, the source holds several entries; their conditions need not be identical. Identical values can stand only once. Like-named read-outs stand apart in the source and are kept apart here. Bridge positions count the residues as written; N and C are the ends. Peptide text beside a SMILES is read from it.

Columns and labels:
[1] = tested on: interaction of CD4 and MHC, class II; assay: Rosetting of Raji cells and CD4-transiently transfected COS-7 cells, microscopic count; assay type: cell-based, human; settings: 200 µM, three independent assays
Procedure: The cyclic peptide CNSNQIC (SEQ ID NO:45) at 200 µM was tested to determine if the peptide inhibited the interaction of CD4 and MHC, class II. The test was performed by rosetting Raji cells and CD4-transiently transfected COS-7 cells. See: Moebius, U. et al., 1992, Proc. Natl. Acad. Sci. 89:12008-12; Moebius, U., et al., 1993, Proc. Natl. Acad. Sci. 90:8259-63.
The sequence of human CD4 cDNA is given in Maddon, P.J. et al., 1985, CELL 42:93-104, which sequence is hereby incorporated by reference. […]
For transfection of COS-7 cells, a CD4-expression plasmid T4-pcDNA3, was constructed by subcloning the 3.0 Kb Eco R1 fragment of T4-pMV7 into the EcoRI site of the mammalian expression vector pcDNA3 (INVITROGEN). […] Rosette formation between Raji cells and transfected COS-7 cells was scored microscopically at 100-fold magnification. The number of rosette containing more than five Raji cells was counted in 10 random optical fields in each individual well; 300-400 rosettes per well were counted as the positive control for rosette formation without any inhibition in the absence of any chemicals. The inhibition activity for rosette formation for each chemical was determined by the ratio of the number of rosettes obtained in the presence of this chemical to the number of rosettes in the positive control. […]

[2] = tested on: responder cell alloreactive proliferation (human T cell); settings: for inhibition (suppressive effect on human T cell activation): 3 h, 100 µM; for activity in human MLR / human T cell proliferation in vitro, in words: in b95 the words describe the cyclic peptide relative to the linear peptides KNSNQI, KNSNQ, NSNQI (linear ones less active)
Procedure: For this assay, fresh peripheral blood lymphocytes from two different donors are co-cultured; the cells of one donor were irradiated and served as stimulators. Proliferation of these activated T cells was measured by measuring the incorporation of ^3H-thymidine at various timepoints.
For human MLR, 50 ml of whole blood was collected into anti-coagulant (ACD, acid citrate dextrose) containing tubes. In 50 ml conical tubes, 20 ml of blood was layered over 20 ml Ficoll 1077 (Sigma Chemical Co., St. Louis, MO) and centrifuged at 2000 rpm for 35-40 min at 15-20°C. Buffy coats and serum were collected in 3x volume of PBS centrifuged at 1500 rpm for 15 min at 15-20°C. Supernatants were discarded, cells were washed 2x in 50 ml PBS and resuspended in RPMI supplemented with 10% heat-inactivated (56°, 30 min) human serum (cat# H4522, Sigma), 50 IU/ml pen/strep and 2mM (1% of 200 mM stock) L-glutamine (both from BioWhitaker). Lymphocyte yield varied between 5-8x10^7.
In a 96-well flat bottom plate 1 x 10^5 responders were plated with 2 x 10^5 irradiated (3000 rad) simulators/well (added in 100 µl each), and incubated for 6, 7 or 8 days at 37°C, 7% CO2. Peptide analogues were added to quadruplicate wells, at a concentration of 100 µM (5 mg/ml stock) or titrations thereof, immediately after cells were plated. For radiolabelling, the cells were incubated with 1 µCi [^3H]TdR/well (25 µl) (diluted from 1mCi/ml stock, Amersham) for the final 6 hours of incubation. Cells were harvested using a fiberfilter cell harvester (e.g., Harvester 96, Tomtec) and counted in a Beta Counter of Beta plate reader (1205 BS Betaplate Liquid Scintillation Counter, Wallac) with scintillation fluid.

EAE = EAE inhibition in vivo, SJL EAE model, daily severity score on 0-5 scale; set-up: species or system mice; settings: for effect on EAE in mice, in words: b73: 0.5 mg dose i.v. 12 days after immunization
Procedure: The C-C' loop peptides were initially tested for efficacy in the SJL EAE model. In untreated animals, a high incidence of disease was observed 15-22 days after two s.c. inoculations of 1 mg of crude murine spinal cord homogenate in complete Freund's adjuvant. The severity of the disease was scored daily using the established 0-5 scale that describes the level of ascending paresis, Korngold, R., et al., 1986, Immunogenetics 24:309-315. The level of the mean EAE severity grade of mice for the untreated control group reached a maximum of 2.0. […] Also shown are the results of groups of mice that received the rD-mPGPtide, a mimic of residues 86-104 of murine homolog of CD4, which was described in Jameson et al. 1994, Nature 368:744-746.

[3] = tested on: interaction of CD4 and MHC, class II; assay: Rosetting of Cr51-labelled Raji cells to stably T4-pMV7-transfected COS-1 cells; assay type: cell-based, human; settings: 200 µM
Text: In a second construct, the T4-pMV7 plasmid, which contains a Tn5 neo selectable marker, was introduced into Cos-1 cells by electroporation. Stably transfected cells were isolated by selection with G-418 and the resultant transformants expressed CD4.
Raji cells were labelled with Cr^51 and rosetted to the stably T4-pMV7-transfected COS-1 cells.

[4] = target: MHC, class II, gene products on Raji cells (human); assay: rosette assay, Raji cells (MHC class II) on CD4-transiently transfected COS-7 cells, peptide at 200 uM, blocks CD4/MHC class II interaction; independent assay 3 of 3
[5] = target: MHC, class II, gene products on Raji cells (human); assay: rosette assay, Raji cells (MHC class II) on CD4-transiently transfected COS-7 cells, peptide at 200 uM, blocks CD4/MHC class II interaction; independent assay 2 of 3
[6] = target: MHC, class II, gene products on Raji cells (human); assay: rosette assay, Cr51-labelled Raji cells (MHC class II) on stably T4-pMV7-transfected COS-1 cells (CD4), peptide at 200 uM
[7] = target: MHC, class II, gene products on Raji cells (human); assay: rosette assay, Raji cells (MHC class II) on CD4-transiently transfected COS-7 cells, peptide at 200 uM, blocks CD4/MHC class II interaction; independent assay 1 of 3
[8] = listed as CNSNQIC (SEQ ID NO:44)

Row | percent inhibition of rosettes [4] | percent inhibition of rosettes [5] | percent inhibition of rosetting [6] | percent inhibition of rosettes [7] | Compound | inhibition of the rosettes [1] | inhibition (suppressive effect on human T cell activation) [2] | activity in human MLR / human T cell proliferation in vitro, in words [2] | activity in human MLR / human T cell proliferation in vitro, in words [2, 8] | maximum severity level (mean EAE severity grade) (EAE; 0.5 mg i.v. on day 12, 0-5 scale, untreated control group maximum 2.0) | effect on EAE in mice, in words (EAE) | effect on EAE in mice, in words (EAE; [8]) | inhibition of rosetting [3]
1 |  |  |  |  | CC[C@H](C)[C@@H]1NC(=O)[C@H](CCC(N)=O)NC(=O)[C@H](CC(N)=O)NC(=O)[C@H](CO)NC(=O)[C@H](CC(N)=O)NC(=O)[C@@H](N)CSSC[C@@H](C(=O)O)NC1=O [CNSNQIC (SEQ ID NO:45), CNSNQIC] (H-CNSNQIC-OH; disulfide 1-7 (inferred); N-terminus and C-terminus assumed) | 57% and 63% and 51% | 54.4% | significantly higher activity than the linear peptides | highly potent inhibitor of human T cell proliferation | 1.0 | effective to ameliorate EAE | inhibitor of EAE in mice | greater than 75%
2 |  |  |  |  | CC[C@H](C)[C@H](NC(=O)[C@H](CCC(N)=O)NC(=O)[C@H](CC(N)=O)NC(=O)[C@H](CO)NC(=O)[C@H](CC(N)=O)NC(=O)[C@@H](N)CS)C(=O)N[C@@H](CS)C(=O)O [linear CNSNQIC, CNSNQIC] (H-CNSNQIC-OH) |  | 32.2% |  |  |  |  |  | 
3 | 51% | 63% | > 75% | 57% | cyclic peptide CNSNQIC (SEQ ID NO:45) |  |  |  |  |  |  |  | 
